# Where two headings read alike, the source gives them in different places.
# What was measured:
# Human neutrophils [1] = assay: Morphologic analysis of human neutrophil apoptosis (light microscopy of cytospins); assay type: cell-based; settings: rhGM-CSF 10 ng/ml, 20 h; for Cytoplasmic vacuolation of human neutrophils: light microscopy, PI-103 at 1 µM or above, LY294002 10 µM
# [2] = Cell accessibility of the inhibitor (footnote of Table 3); design: key: *: Poor cell accessibility; settings: footnote mark at the inhibitor's name
# Human neutrophils [3] = assay: rhGM-CSF-modulated human neutrophil apoptosis, annexin V/PI flow cytometry; assay type: cell-based; settings: rhGM-CSF 10 ng/ml; for Effect on rhGM-CSF-mediated human neutrophil survival: 20 h
# Method: To examine the effects of small molecule PI3K inhibitors on rhGM-CSF (10 ng/ml) -modulated apoptosis, neutrophils (5×10^6/ml) were re-suspended in Iscove’s modified Dulbecco medium (IMDM) supplemented with 10% autologous serum, 100 U/mL penicillin and 100 µg/mL streptomycin in non-tissue culture treated flat bottom Falcon Flexiwell plates in a humidified 5% CO2 atmosphere at 37°C.
# [4] = system: Murine peripheral blood neutrophils; settings: for Effect on constitutive murine neutrophil apoptosis: no rmGM-CSF, 8 h and 4 h
# [5] = system: PKB (Akt) phosphorylation; assay: Western blot for rhGM-CSF-induced PKB (Akt Ser473) phosphorylation in human neutrophils; assay type: cell-based; settings: 20 min pre-incubation, rhGM-CSF 10 ng/ml 10 min
# Method: Neutrophils were suspended at 5×10^6/ml and 0.5 ml aliquots were pre-incubated for 20 minutes with PI3K inhibitors at 37°C prior to treatment with GM-CSF 10 ng/ml for 10 min. The cells were washed with ice-cold phosphate-buffered saline and pelleted and resuspended in 50 µl of cold lysis buffer (20 mM Tris-HCl (pH 7.5), 150 mM NaCl, 1 mM EDTA, 1 mM EGTA, 1% Triton X-100, 2.5 mM sodium pyrophosphate, 1 mM β-glycerophosphate, 1 mM PMSF, 1 mM sodium fluoride, 2 mM sodium orthovanadate, 10 µg/ml leupeptin, 10 µg/ml aprotinin) and incubated on ice for 10 minutes. The Triton-insoluble fraction was pelleted by centrifugation at 10 000 g for 15 min at 4°C. The protein concentration of the supernatant was determined using a colorimetric assay (bicinchoninic acid; BCA, BIO Rad Laboratories). SDS sample buffer was added to each neutrophil lysate and heated to 99°C for 5 min. 30 µg of protein/well was loaded on to each 10% SDS-polyacrylamide gel and subjected to electrophoresis at 150 V and transferred to a PVDF Immobilon membrane using a semi-dry transfer system at 130 mA for 90 minutes. The membrane was blocked for 1 hour with 5% non-fat dry milk in Tris-HCl buffered saline containing 0.1% (w/v) Tween 20 then immunoblotted overnight at 4°C in TBS-Tween-20 with primary monoclonal antibody to total Akt rabbit mAb or Phospho-Akt (Ser^473) rabbit mAb (Cell Signaling Technology 40585 and 9272 respectively) at a dilution of 1∶1000 in TBS-Tween 20 with 5% Bovine Serum Albumin. The membrane was washed three times in TBS-Tween 20 and incubated with ECL HRP-conjugated donkey anti-rabbit IgG (Fab2 fragment; GE Healthcare) at a dilution of 1∶10 000 in TBS-Tween 20 for 1 hour at room temperature. Membranes were developed using ECL-Plus kit (GE Healthcare).
# Figure 5 Combined inhibition of all Class IA PI3Ks abrogates rhGM-CSF mediated PKB phosphorylation. […] Western blots from the experiments describe in B. above were scanned and analyzed using the Aida Image Analyzer 3.27 software package. […]
# [6] = system: Peripheral blood neutrophils from exacerbating COPD patients; assay: Ex vivo apoptosis of peripheral blood neutrophils from patients with exacerbation of COPD, annexin V/PI flow cytometry; assay type: cell-based, human; settings: 20 hours culture; for Effect on reduced spontaneous apoptosis of neutrophils from exacerbating COPD patients: ex vivo, 20 min pre-incubation
# Human neutrophils [7] = assay: rhGM-CSF-modulated human neutrophil apoptosis, annexin V/PI flow cytometry; assay type: cell-based; settings: no GM-CSF; 20 h (also 6 h); LY294002 10 µM
# p110α [8] = target: T1, p110α (Homo sapiens, UniProt P42336); assay: biochemical
# p110β = p110β (Homo sapiens, UniProt P42338); assay: biochemical
# p110δ [9] = target: T2, p110δ (Homo sapiens, UniProt O00329); assay: biochemical
# p110γ [10] = target: T3, p110γ (Homo sapiens, UniProt P48736); assay: biochemical
# Human neutrophils [11] = assay: fMLP-stimulated neutrophil oxidative burst (luminol/HRP chemiluminescence); assay type: cell-based; settings: fMLP 100 nM
# Method: All PI3K inhibitors were dissolved in dimethyl sulfoxide (DMSO) and stored at −20°C. […] The concentration response curves for NVS-PI3-3 and NVS-PI3-4 on the neutrophil respiratory burst generated as described in [10] are shown in Figure 2.  Figure 2 Effect of NVS-PI3-4 and NVS-PI3-3 on Neutrophil Oxidative Burst. Human neutrophils were suspended at 4×10^6/ml in HBSS at 37°C and either primed with TNFα 10 ng/ml or treated with vehicle control, prior to the addition of NVS-PI3-4 (A) or NVS-PI3-3 (B) at the indicated concentrations. […] Triangular symbols represent TNFα-primed cells; unprimed cells depicted by squares.
# PI3K Class I isoforms = system: PI3K Class I isoforms; design: method as in PMID 20179189; settings: competitive inhibition; cited from earlier work
# p110δ [12] = target: T2, p110δ; settings: in vitro kinase assay; data compiled from published work; cited from earlier work
# p110γ [13] = target: T3, p110γ; settings: in vitro kinase assay; data compiled from published work; cited from earlier work
# p110α [14] = target: T1, p110α; settings: in vitro kinase assay; data compiled from published work; cited from earlier work
# [15] = inhibitor 3 µM, used individually
# [16] = inhibitor 1 µM, used individually
# [17] = C57BL/6, rmGM-CSF 0.1 ng/ml, 8 hours
# [18] = C57BL/6, rmGM-CSF 0.1 ng/ml, 8 hours, concentration-dependent
# [19] = TNFα 10 ng/ml-primed human neutrophils, read-out: Primed IC50, neutrophil oxidative burst
# [20] = unprimed human neutrophils, read-out: Unprimed IC50, neutrophil oxidative burst
# T1 sequence (P42336 whole entry, species assumed): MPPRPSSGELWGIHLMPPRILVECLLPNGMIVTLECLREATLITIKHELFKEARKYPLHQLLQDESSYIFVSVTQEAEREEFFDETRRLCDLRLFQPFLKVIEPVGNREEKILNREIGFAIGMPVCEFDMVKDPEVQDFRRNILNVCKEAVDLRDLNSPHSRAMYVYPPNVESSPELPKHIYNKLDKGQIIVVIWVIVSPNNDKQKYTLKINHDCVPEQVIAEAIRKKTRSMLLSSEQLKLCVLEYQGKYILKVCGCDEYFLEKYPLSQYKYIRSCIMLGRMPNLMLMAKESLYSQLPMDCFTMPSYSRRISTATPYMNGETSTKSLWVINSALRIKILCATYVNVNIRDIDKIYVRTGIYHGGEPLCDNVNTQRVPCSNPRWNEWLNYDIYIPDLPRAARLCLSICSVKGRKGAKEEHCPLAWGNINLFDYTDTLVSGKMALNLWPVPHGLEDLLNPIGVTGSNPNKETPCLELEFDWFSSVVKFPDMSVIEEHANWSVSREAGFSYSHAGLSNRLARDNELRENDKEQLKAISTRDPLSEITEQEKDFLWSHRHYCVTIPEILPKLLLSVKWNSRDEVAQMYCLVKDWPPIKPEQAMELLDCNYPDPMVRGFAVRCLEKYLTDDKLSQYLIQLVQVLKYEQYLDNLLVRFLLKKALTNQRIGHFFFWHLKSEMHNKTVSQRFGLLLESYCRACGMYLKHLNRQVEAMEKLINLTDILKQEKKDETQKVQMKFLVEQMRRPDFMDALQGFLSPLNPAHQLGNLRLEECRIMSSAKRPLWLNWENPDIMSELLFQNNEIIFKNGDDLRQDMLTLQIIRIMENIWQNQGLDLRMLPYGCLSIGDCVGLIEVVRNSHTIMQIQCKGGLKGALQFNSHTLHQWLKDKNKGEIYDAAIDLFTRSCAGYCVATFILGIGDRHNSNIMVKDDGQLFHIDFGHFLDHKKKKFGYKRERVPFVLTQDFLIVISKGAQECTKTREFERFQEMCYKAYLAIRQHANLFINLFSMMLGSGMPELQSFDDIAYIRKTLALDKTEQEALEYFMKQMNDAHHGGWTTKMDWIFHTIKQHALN
# T1 sequence (P27986 whole entry partner, species assumed): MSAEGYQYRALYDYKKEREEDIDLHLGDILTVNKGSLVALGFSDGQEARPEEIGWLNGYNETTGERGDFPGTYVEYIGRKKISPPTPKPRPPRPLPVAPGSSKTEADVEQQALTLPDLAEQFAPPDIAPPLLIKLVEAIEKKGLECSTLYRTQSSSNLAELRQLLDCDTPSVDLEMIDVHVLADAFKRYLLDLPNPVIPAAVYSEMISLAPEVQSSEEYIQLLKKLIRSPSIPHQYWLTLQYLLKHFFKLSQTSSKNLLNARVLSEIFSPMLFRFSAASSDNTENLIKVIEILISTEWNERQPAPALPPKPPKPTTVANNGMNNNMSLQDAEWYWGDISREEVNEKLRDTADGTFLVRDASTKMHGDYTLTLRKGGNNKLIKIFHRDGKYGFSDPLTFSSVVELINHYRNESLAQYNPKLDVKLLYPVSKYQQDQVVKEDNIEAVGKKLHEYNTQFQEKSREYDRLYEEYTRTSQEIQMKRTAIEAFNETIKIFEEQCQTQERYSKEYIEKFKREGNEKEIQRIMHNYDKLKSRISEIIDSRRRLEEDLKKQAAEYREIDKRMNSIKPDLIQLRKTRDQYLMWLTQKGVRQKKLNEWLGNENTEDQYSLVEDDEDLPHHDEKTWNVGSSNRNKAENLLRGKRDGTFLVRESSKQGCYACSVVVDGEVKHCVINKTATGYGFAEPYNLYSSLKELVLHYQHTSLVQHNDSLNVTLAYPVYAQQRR
# T2 sequence (O00329 whole entry, species assumed): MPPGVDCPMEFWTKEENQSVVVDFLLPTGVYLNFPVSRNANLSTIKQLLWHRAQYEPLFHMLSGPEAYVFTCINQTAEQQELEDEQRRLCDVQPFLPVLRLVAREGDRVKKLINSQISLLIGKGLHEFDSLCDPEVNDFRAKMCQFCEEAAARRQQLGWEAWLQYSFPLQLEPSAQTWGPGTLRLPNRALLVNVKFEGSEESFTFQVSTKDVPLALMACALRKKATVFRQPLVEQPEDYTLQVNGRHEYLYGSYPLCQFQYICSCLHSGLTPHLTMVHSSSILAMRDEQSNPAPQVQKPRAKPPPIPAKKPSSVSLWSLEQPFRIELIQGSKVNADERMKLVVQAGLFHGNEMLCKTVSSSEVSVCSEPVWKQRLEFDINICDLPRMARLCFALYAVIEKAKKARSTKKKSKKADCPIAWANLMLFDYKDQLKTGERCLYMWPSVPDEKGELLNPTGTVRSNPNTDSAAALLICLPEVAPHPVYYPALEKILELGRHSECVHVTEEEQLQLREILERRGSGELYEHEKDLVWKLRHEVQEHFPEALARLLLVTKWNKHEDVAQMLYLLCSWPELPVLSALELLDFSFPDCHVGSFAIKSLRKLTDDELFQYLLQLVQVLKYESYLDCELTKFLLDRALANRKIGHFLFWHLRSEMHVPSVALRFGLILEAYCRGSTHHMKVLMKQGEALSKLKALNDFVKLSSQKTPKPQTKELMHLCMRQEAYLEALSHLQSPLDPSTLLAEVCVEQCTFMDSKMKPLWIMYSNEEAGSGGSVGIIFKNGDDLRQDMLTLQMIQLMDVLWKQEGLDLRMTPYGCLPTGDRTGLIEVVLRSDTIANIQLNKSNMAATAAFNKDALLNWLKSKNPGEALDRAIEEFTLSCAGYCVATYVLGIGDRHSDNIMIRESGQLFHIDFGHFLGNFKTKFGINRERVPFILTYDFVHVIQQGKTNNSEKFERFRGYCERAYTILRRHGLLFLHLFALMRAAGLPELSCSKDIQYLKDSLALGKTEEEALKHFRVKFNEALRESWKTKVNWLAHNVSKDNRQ
# T2 sequence (P27986 whole entry partner, species assumed): as the sequence (P27986 whole entry partner, species assumed) above
# p110β, sequence (P42338 whole entry, species assumed): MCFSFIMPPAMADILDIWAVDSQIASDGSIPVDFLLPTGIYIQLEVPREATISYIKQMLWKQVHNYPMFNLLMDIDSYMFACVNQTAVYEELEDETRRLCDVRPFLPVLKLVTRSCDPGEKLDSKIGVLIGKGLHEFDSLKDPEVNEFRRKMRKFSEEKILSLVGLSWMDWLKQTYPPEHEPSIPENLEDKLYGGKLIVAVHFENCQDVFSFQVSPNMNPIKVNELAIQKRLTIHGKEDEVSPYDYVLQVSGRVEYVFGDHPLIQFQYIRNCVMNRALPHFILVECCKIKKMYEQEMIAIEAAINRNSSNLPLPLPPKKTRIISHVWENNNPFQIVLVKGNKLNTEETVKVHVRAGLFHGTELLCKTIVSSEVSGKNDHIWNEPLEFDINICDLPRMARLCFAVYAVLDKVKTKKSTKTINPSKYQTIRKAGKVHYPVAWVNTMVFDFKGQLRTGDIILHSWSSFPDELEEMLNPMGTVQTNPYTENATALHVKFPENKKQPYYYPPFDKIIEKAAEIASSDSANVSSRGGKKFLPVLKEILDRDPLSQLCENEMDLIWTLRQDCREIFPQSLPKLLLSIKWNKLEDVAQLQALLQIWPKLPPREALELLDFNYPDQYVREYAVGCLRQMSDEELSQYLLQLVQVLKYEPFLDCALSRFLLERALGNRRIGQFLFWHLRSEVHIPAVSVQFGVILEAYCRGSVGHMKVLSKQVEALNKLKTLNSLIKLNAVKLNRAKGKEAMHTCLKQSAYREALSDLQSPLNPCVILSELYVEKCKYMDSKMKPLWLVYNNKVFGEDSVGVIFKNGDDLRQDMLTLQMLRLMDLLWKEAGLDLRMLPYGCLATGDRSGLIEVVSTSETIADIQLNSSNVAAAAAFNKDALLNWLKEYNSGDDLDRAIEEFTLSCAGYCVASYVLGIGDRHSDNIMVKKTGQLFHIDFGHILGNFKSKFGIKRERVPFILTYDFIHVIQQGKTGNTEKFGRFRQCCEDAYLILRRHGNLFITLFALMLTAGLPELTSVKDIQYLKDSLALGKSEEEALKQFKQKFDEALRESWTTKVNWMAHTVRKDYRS
# p110β, sequence (P27986 whole entry partner, species assumed): as the sequence (P27986 whole entry partner, species assumed) above
# T3 sequence (P48736 whole entry, species assumed): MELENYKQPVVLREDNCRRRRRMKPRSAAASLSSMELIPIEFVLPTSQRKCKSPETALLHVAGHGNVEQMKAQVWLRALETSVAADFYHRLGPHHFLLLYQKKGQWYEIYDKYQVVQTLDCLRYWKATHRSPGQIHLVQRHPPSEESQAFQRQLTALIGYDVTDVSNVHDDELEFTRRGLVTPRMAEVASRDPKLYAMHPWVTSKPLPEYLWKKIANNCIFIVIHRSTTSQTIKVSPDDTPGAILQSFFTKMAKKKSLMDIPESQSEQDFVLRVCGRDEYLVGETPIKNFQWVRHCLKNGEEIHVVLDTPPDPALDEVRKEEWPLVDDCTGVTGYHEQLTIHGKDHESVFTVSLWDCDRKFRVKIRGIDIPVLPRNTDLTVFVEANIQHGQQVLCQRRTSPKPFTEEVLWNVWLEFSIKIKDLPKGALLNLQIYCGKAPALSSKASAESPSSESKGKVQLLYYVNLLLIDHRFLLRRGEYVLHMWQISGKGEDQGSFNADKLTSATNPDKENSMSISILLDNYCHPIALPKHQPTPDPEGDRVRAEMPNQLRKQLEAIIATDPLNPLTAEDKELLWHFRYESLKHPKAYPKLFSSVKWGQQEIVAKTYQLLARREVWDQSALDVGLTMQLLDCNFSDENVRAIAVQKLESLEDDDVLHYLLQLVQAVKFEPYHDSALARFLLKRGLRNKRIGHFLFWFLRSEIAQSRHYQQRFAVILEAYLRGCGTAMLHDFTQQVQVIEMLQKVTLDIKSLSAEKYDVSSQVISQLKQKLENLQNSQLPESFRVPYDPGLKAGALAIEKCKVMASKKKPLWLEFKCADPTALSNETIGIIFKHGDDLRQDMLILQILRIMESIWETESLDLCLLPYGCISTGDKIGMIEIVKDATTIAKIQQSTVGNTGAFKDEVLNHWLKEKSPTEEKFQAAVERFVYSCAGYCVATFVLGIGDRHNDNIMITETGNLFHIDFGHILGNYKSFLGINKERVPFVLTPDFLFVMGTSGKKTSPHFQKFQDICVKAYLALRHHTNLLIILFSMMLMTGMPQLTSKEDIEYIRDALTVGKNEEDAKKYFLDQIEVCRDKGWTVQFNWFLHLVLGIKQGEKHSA
molecule,measurement,setting,value
O=c1[nH]c2ccccc2n1C1CCN(Cc2ccc(-c3nc4cc5nc[nH]c5cc4nc3-c3ccccc3)cc2)CC1 [AKT-i1/2],Effect on GM-CSF-mediated neutrophil survival,"Human neutrophils [1]; increasing concentrations, morphology",suppresses GM-CSF-mediated neutrophil survival
O=C1NC(=O)/C(=C\c2ccc3nccnc3c2)S1 [AS605240],Cell accessibility,[2],AS605240 (γ) ^*
same,Effect on rhGM-CSF-mediated human neutrophil survival,Human neutrophils [3]; [15],failed to abrogate GM-CSF mediated survival
Cc1cc(C(C)Nc2ccccc2C(=O)O)c2nc(N3CCOCC3)cc(=O)n2c1 (stereo not drawn) [HBC-417],Effect on rhGM-CSF-mediated human neutrophil survival,Human neutrophils [3]; [16],failed to affect GM-CSF-mediated survival
Cc1ccccc1-n1c(Cn2cnc3c(N)ncnc32)nc2cccc(C)c2c1=O [IC87114],Effect on rhGM-CSF-mediated human neutrophil survival,Human neutrophils [3]; [15],failed to abrogate GM-CSF mediated survival
O=c1cc(N2CCOCC2)oc2c(-c3ccccc3)cccc12 [LY294002],Cytoplasmic vacuolation of human neutrophils,Human neutrophils [1],not apparent
same,Vacuole formation or necrosis in murine neutrophils,[4],nor did it induce vacuole formation or necrosis
same,Concentration giving maximal effect on rmGM-CSF survival effect,[4]; [17],10 µM
same,Effect on rmGM-CSF cytoprotective (survival) effect in murine neutrophils,[4]; [18],abrogated the rmGM-CSF cytoprotective effect
same,Effect on constitutive murine neutrophil apoptosis,[4],had no effect on the rate of constitutive murine neutrophil apoptosis
same,Effect on rhGM-CSF-mediated human neutrophil survival,Human neutrophils [3]; inhibitor 10 µM,prevented rhGM-CSF-mediated human neutrophil survival
same,Effect on GM-CSF-induced PKB phosphorylation,[5],abolished
same,Effect on reduced spontaneous apoptosis of neutrophils from exacerbating COPD patients,[6],failed to restore the ability of exacerbating patient-derived neutrophils to undergo apoptosis in a timely fashion
same,Effect on constitutive human neutrophil apoptosis,Human neutrophils [7],without affecting the extent of constitutive neutrophil apoptosis
NC(=O)[C@@H]1CCCN1C(=O)Nc1nc2ccc(-c3cnc(N)c(C(F)(F)F)c3)cc2s1 [NVS-PI3-2],Effect on rhGM-CSF-mediated human neutrophil survival,Human neutrophils [3]; [16],failed to affect GM-CSF-mediated survival
Cc1cc(NC(=O)CCNC(=O)Nc2nc(C)c(-c3ccc(-n4cccn4)cc3)s2)no1 [NVS-PI3-3],IC50,p110α [8],180 nM
same,Effect on rhGM-CSF-mediated human neutrophil survival,Human neutrophils [3]; [16],failed to affect GM-CSF-mediated survival
same,IC50,p110β,600 nM
same,IC50,p110δ [9],3 nM
same,IC50,p110γ [10],310 nM
same,IC50,Human neutrophils [11]; [19],525 nM
same,IC50,Human neutrophils [11]; [20],44 nM
CC(=O)c1ccc(-c2sc(NC(=O)NCCC(=O)NC(C)(C)C)nc2C)cc1 [NVS-PI3-4],IC50,p110α [8],1800 nM
same,Effect on rhGM-CSF-mediated human neutrophil survival,Human neutrophils [3]; [16],failed to affect GM-CSF-mediated survival
same,IC50,p110β,250 nM
same,IC50,p110δ [9],750 nM
same,IC50,Human neutrophils [11]; [19],4000 nM
same,IC50,Human neutrophils [11]; [20],710 nM
Oc1cccc(-c2nc(N3CCOCC3)c3oc4ncccc4c3n2)c1 [PI-103],Cell accessibility,[2],PI-103 (pan class I) ^*
same,Morphological assessment of apoptosis in neutrophils treated with rhGM-CSF and inhibitor,Human neutrophils [1]; PI-103 10 µM,did not reveal classical apoptotic morphology
same,Cytoplasmic vacuolation of human neutrophils,Human neutrophils [1],extensive cytoplasmic vacuolation was seen
same,Vacuole formation or necrosis in murine neutrophils,[4],did not exhibit significant vacuolation
same,Concentration giving maximal effect on rmGM-CSF survival effect,[4]; [17],3 µM
same,Effect on rmGM-CSF cytoprotective (survival) effect in murine neutrophils,[4]; [18],blocked the rmGM-CSF survival effect
same,"Effect on rmGM-CSF-induced survival, wild type neutrophils","[4]; PI-103 0.3 µM, C57BL/6, rmGM-CSF 0.1 ng/ml, 8 hours",had no effect on rmGM-CSF-induced survival of wild type neutrophils
same,"Effect on rmGM-CSF-induced survival, p110γKO and p110δKOγKO neutrophils","[4]; PI-103 0.3 µM, rmGM-CSF 0.1 ng/ml, 8 hours",attenuated the rmGM-CSF survival effect
same,Effect on constitutive murine neutrophil apoptosis,[4],did not affect constitutive apoptosis
same,Effect on rhGM-CSF-mediated human neutrophil survival,Human neutrophils [3]; inhibitor 10 µM,did indeed appear to inhibit the effects of rhGM-CSF on neutrophil apoptosis
same,IC50 against all PI3K Class I isoforms,PI3K Class I isoforms,submicromolar range
same,Effect on GM-CSF-induced PKB phosphorylation,[5],abolished
CC#C[C@]1(O)CC[C@H]2[C@@H]3CCC4=CC(=O)CCC4=C3[C@@H](c3ccc(N(C)C)cc3)C[C@@]21C [RU-486],Effect on reduced spontaneous apoptosis of neutrophils from exacerbating COPD patients,[6],lack of effect
Cc1cc(C(C)Nc2ccccc2)c2nc(N3CCOCC3)cc(=O)n2c1 (stereo not drawn) [TGX-221],IC50,p110δ [12],100 nM
same,Effect on rhGM-CSF-mediated human neutrophil survival,Human neutrophils [3]; inhibitor 10 µM,failed to abrogate GM-CSF mediated survival
same,IC50,p110γ [13],3500 nM
same,IC50,p110α [14],5000 nM
COC[C@H]1OC(=O)c2coc3c2[C@@]1(C)C1=C(C3=O)[C@@H]2CCC(=O)[C@@]2(C)C[C@H]1OC(C)=O [Wortmannin],Effect on rhGM-CSF-mediated human neutrophil survival,"Human neutrophils [3]; inhibitor 100 nM, replenished during culture","blocked the anti-apoptotic effect of GM-CSF, although less completely than 10 µM LY294002"
same,Effect on GM-CSF-induced PKB phosphorylation,[5],abolished
"rhGM-CSF: Recombinant human granulocyte-macrophage colony stimulating factor, obtained from R&D Systems",Effect of GM-CSF on human neutrophil apoptosis,Human neutrophils [3]; 6–24 h,delays human neutrophil apopotosis
same,Effect of rhGM-CSF on survival of neutrophils from exacerbating COPD patients,[6]; 10 ng/ml,caused a fully PI3K-dependent additional survival effect
"rmGM-CSF: Recombinant mouse granulocyte-macrophage colony stimulating factor, purchased from Peprotech (protein, UniProt P01587 18-141, looked up) Granulocyte-macrophage …: APTRSPITVTRPWKHVEAIKEALNLLDDMPVTLNEEVEVVSNEFSFKKLTCVQTRLKIFEQGLRGNFTKLKGALNMTASYYQTYCPPTPETDCETQVTTYADFIDSLKTFLTDIPFECKKPGQK",EC50 for delay of murine neutrophil apoptosis,"[4]; C57BL/6 peripheral blood neutrophils, 8 hour, AnV/PI flow cytometry",0.0075 ng/mL
same,Effect on murine neutrophil apoptosis,"[4]; concentration-dependent, all time points studied (0–12 h)",significantly delayed

# Source: PMC3454369, “Functional Redundancy of Class I Phosphoinositide 3-Kinase (PI3K) Isoforms in Signaling Growth Factor-Mediated Human Neutrophil Survival” (PLoS ONE, 2012)
